US9867814B2, “Use of non-peptidic NK1 receptor antagonists for the production of apoptosis in tumour cells” (NK-1 IP LIMITED, priority 2004, dated 2018)

Columns and labels:
Type in all cases: cell-based, human
[1] = system: COLO-677; test: MTS cell proliferation assay, small cell lung cancer line COLO-677; conditions: COLO-677 cells
Method: Cellular lines related with small cell lung cancer COLO-677 (DSMZ) was used. This cellular line was maintained in a culture of RPMI 1640 supplemented with 10% fetal bovine serum according to the established cellular culture conditions of the ATCC.
(§1) The cellular line was cultivated in flasks of 75 ml (Falcon, Germany). Half were renewed every two days and the cells were treated with Trypsin (0.05% and 0.02% EDTA without Ca2+ and Mg2+) every six days. The cells were incubated at a temperature of 37 C in a humidification of (95% air/5% CO2). […]
(§2) The cell proliferation was evaluated using the MTS method [3-(4,5-dimethylthiazol-2-il)-5-(3-carboxymethoxyphenyl) 2-(4-sulfophenyl)-2H-tetrazolium], following the instructions of use by the manufacturer (CellTiter 96 Aqueous One Solution Cell Proliferation Assay, Promega, USA).
(§3) During the experiment, the cultivated cells were broken apart every 4-5 days by way of trypsinization and to test the cell viability the blue trypan method was used. The cells were quantified and cultured in plates of 96 wells each. […]
In T0, 20 μl of MTS was immediately added to the wells and they were read 90 minutes later. […]
To study the proliferation of the cells 20 μL of MTS reactor was added to each well (T1, T2) 90 min., before reading the samples with the plate reader (TECAN Spectra Classic) at 492 nm. […]

[2] = system: A-204; test: MTS cell proliferation assay, rhabdomyosarcoma line A-204; conditions: A-204 cells
Method: Cellular Lines Related to Human Rhabdomyosarcoma A-204 (DSMZ) were Used.
This cellular line was maintained in a culture of Mc-Co-supplemented with 10% fetal bovine serum according to the established cellular culture conditions of the ATCC.
as §1
The cell proliferation was evaluated using the MTS method [3-(4,5-dimethylthiazol-2il)-5-(3-carboxymethoxyphenyl) 2-(4-sulfophenyl)-2H-tetrazolium], following the instructions of use by the manufacturer (CellTiter 96 Aqueous One Solution Cell Proliferation Assay, Promega, USA).
as §3
In T0, 20 μl of MTS was immediately added to the wells and were read 90 minutes later. […]
To study the proliferation of the cells 20 μl of MTS reactor was added to each well (T1, T2) 90 min., before reading the samples with the plate reader (TECAN Spectra Classic) at 492 nm. […]

[3] = system: CA-46; test: MTS cell proliferation assay, Burkitt's lymphoma line CA-46; conditions: CA-46 cells
Method: Cellular lines related with Burkitt's human lymphoma The cellular line of Burkitt's human lymphoma was used with CA-46 (DSMZ).
This cellular line was maintained in a culture of RPMI 1640 supplemented with 10% fetal bovine serum according to the established cellular culture conditions of the ATCC.
The cellular lines were cultivated in flasks of 75 ml (Falcon, Germany). Half was renewed every two days and the cells were treated with Trypsin (0.05% and 0.02% EDTA […]) every six days. The cells were incubated at 37 C in a humidification of (95% air/5% CO2). […]
as §2
The cells were quantified and cultured in plates of 96 wells each. […]
In T0, 20 μL of MTS was immediately added to the wells and they were read 90 minutes later. […]
To study the proliferation of the cells 20 µl of reactive MTS was added to each well (T1, T2) 90 min before reading the samples with the plate reader (TECAN Spectra Classic) at 492 nm. The quantity of reactive MTS was measured by optical density, being directly proportional in number of live cells. […]

FC(F)(F)c1cc(CO[C@H]2CCCN[C@H]2c2ccccc2)cc(C(F)(F)F)c1 [L-733,060, (2S,3S) 3-([3,5-Bis(trifluoromethyl)phenyl]metoxi)-2-phenylpiperidine]
cellular growth ([1]; at the highest concentrations (5 μM to 20 μM tested), 40 hrs. and 96 hrs. incubation): Cellular growth is inhibited | apoptosis ([1]; at the maximum dose (5 μM to 20 μM tested)): apoptosis | cellular growth ([2]; at the highest concentrations (2.5 μM to 20 μM tested), 36 hrs. and 72 hrs. incubation): Cellular growth is inhibited | apoptosis ([2]; at the maximum dose (2.5 μM to 20 μM tested)): apoptosis | cellular growth ([3]; at the highest concentrations (2.5 μM to 25 μM tested), 35 hrs. and 72 hrs. incubation): inhibition in cellular growth was produced | apoptosis ([3]; at the maximum dose (2.5 μM to 25 μM tested)): apoptosis
